The subject of this assay is P388 leukemia ip, CD2F1 mice, survival T/C. Nature of the assay: NCI In Vivo Anticancer Drug Screen. Data for tumor model P388 Leukemia (intraperitoneal) in CD2F1 (CDF1) mice. The note with it: endpoint: median survival time, higher = longer survival. An outline of the steps:
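Mice carrying the transplanted tumor received test compound or vehicle. Survival was recorded in each group, and the value is the treated-group measurement divided by that of the vehicle-treated control group.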

Where [1] appears, read: dose: 12.5 mg/kg/injection, schedule: Q01DX009 (ip), vehicle: saline with Tween-80.
[2] abbreviates: dose: 25.0 mg/kg/injection, schedule: Q01DX009 (ip), vehicle: saline with Tween-80.
[3] abbreviates: dose: 50.0 mg/kg/injection, schedule: Q01DX009 (ip), vehicle: saline with Tween-80.
[4] abbreviates: dose: 100.0 mg/kg/injection, schedule: Q01DX009 (ip), vehicle: saline with Tween-80.
[5] abbreviates: dose: 200.0 mg/kg/injection, schedule: Q01DX009 (ip), vehicle: saline with Tween-80.
Setting [6] is: dose: 50.0 mg/kg/injection, schedule: Q01DX005 (ip), vehicle: Klucel (hydroxypropylcellulose) (HPC).
Where [7] appears, read: dose: 100.0 mg/kg/injection, schedule: Q01DX005 (ip), vehicle: Klucel (hydroxypropylcellulose) (HPC).
The mark [8] stands for this setting: dose: 200.0 mg/kg/injection, schedule: Q01DX005 (ip), vehicle: Klucel (hydroxypropylcellulose) (HPC).
[9] abbreviates: dose: 50.0 mg/kg/injection, schedule: Q01DX009 (ip), vehicle: saline.
The mark [10] stands for this setting: dose: 100.0 mg/kg/injection, schedule: Q01DX009 (ip), vehicle: saline.
Setting [11] is: dose: 200.0 mg/kg/injection, schedule: Q01DX009 (ip), vehicle: saline.
Where [12] appears, read: dose: 50.0 mg/kg/injection, schedule: Q01DX009 (ip), vehicle: Klucel (hydroxypropylcellulose) (HPC).
Where [13] appears, read: dose: 100.0 mg/kg/injection, schedule: Q01DX009 (ip), vehicle: Klucel (hydroxypropylcellulose) (HPC).
[14] abbreviates: dose: 25.0 mg/kg/injection, schedule: Q01DX009 (ip), vehicle: saline.
[15] abbreviates: dose: 25.0 mg/kg/injection, schedule: Q04DX003 (ip), vehicle: saline.
Setting [16] is: dose: 50.0 mg/kg/injection, schedule: Q04DX003 (ip), vehicle: saline.
The mark [17] stands for this setting: dose: 200.0 mg/kg/injection, schedule: Q01DX009 (ip), vehicle: Klucel (hydroxypropylcellulose) (HPC).
[18] abbreviates: dose: 100.0 mg/kg/injection, schedule: Q04DX002 (ip), vehicle: saline with Tween-80.

Our source for the T/C values is PubChem BioAssay AID330 (DTP/NCI, 2004).

SMILES strings stand for the structures. Several values for one entry are separate records, joined by “and”; a condition that tells them apart may be missing. Equal values may be shown once. Inconclusive results and toxic doses are left out.

For `CCCCCCC(C)N=[N+]([O-])CBr` (configuration not stated), the T/C was 114 % of control (dose: 100.0 mg/kg/injection, schedule: Q01DX001 (ip), vehicle: other); 111 % of control (dose: 200.0 mg/kg/injection, schedule: Q01DX001 (ip), vehicle: other); 103 % of control (dose: 400.0 mg/kg/injection, schedule: Q01DX001 (ip), vehicle: other).

As to `CCCC(OC(C)=O)C(C)[N+](=O)[O-]` (configuration not stated), the T/C is, setting by setting: under setting [1], 91 % of control; under setting [2], 100 % of control; under setting [3], 102 % of control; under setting [4], 104 % of control; under setting [5], 112 % of control.

Regarding `CCOC(CN=Cc1cc(C)c2sc3ccccc3c2c1C)OCC`, the T/C is 110 % of control under setting [2], 103 % of control under setting [3], 108 % of control under setting [4] and 111 % of control under setting [5].

On to `CC(=NCCCCN=C(C)c1cc(C)ccc1O)c1cc(C)ccc1O`, for which the T/C was 98 % of control under setting [6], 100 % of control under setting [7] and 103 % of control under setting [8].

For `O=C(O)c1ncc2ncccc2c1O`, the T/C reads like this: under setting [9], 107 % of control; under setting [10], 104 % of control; under setting [11], 101 % of control.

Consider `CC1CCC(C(C)(C)c2ccccc2)CC1OC(=O)/C=C/CC(C)(C)CC=C1C2CCC1N(C(=O)OCC(Cl)(Cl)Cl)N2C(=O)OCC(Cl)(Cl)Cl` (configuration not stated), for which the T/C is 89 % of control (dose: 25.0 mg/kg/injection, schedule: Q01DX005 (ip), vehicle: Klucel (hydroxypropylcellulose) (HPC)) and 89 % of control under setting [6].

`O=[N+]([O-])c1cccc2nsnc12`: the T/C reads like this: (dose: 6.25 mg/kg/injection, schedule: Q01DX009 (ip), vehicle: saline with Tween-80) 100 % of control; under setting [1], 116 % of control; under setting [2], 94 % of control; under setting [3], 107 % of control.

With `O=[N+]([O-])c1cc([N+](=O)[O-])c(N2CC2)cc1C1=NCCO1`, the T/C under setting [12] was 98 % of control and the T/C under setting [13] was 110 % of control.

As for `O=S(=O)(C1=NOC(c2ccccc2)C1)c1ccccc1` (configuration not stated), the T/C runs as follows: under setting [6], 99 % of control; under setting [7], 95 % of control; under setting [8], 93 % of control.

In the case of `CCCCN(CCCC)CCC(C)(O)c1cccc2ccccc12` (configuration not stated), the T/C (dose: 25.0 mg/kg/injection, schedule: Q01DX005 (ip), vehicle: saline with Tween-80) is 98 % of control; the T/C (dose: 50.0 mg/kg/injection, schedule: Q01DX005 (ip), vehicle: saline with Tween-80) is 108 % of control; the T/C (dose: 100.0 mg/kg/injection, schedule: Q01DX005 (ip), vehicle: saline with Tween-80) was 92 % of control.

Take `Nc1nc(-c2ccccn2)cc2ccc(Cl)cc12`: the T/C runs as follows: (dose: 100.0 mg/kg/injection, schedule: Q01DX001 (ip), vehicle: saline with Tween-80) 101 % of control; (dose: 200.0 mg/kg/injection, schedule: Q01DX001 (ip), vehicle: saline with Tween-80) 104 % of control; (dose: 400.0 mg/kg/injection, schedule: Q01DX001 (ip), vehicle: saline with Tween-80) 104 % of control.

With `CC(/C=N/N=C(N)N)=N/N=C(N)N`, the T/C reads like this: under setting [14], 120 % of control; under setting [15], 100 % of control; under setting [9], 150 % of control; under setting [16], 100 % of control; (dose: 75.0 mg/kg/injection, schedule: Q01DX009 (ip), vehicle: saline) 170 % of control; under setting [4], 86 % of control.

Consider `Cc1cccc(NC(=O)c2ccccc2)n1`, for which the T/C was 104 % of control (dose: 12.5 mg/kg/injection, schedule: Q04DX003 (ip), vehicle: saline); 100 % of control under setting [15]; 90 % of control under setting [16].

For `CCCN(CCC)C(=O)[S-].CCCN(CCC)C(=O)[S-].[Ni+2]`, the T/C under setting [1] is 90 % of control and the T/C under setting [2] is 109 % of control.

Turning to `NOCc1ccc(CON)cc1`, the T/C by setting is: under setting [3], 95 % of control; under setting [4], 95 % of control; under setting [5], 91 % of control.

Regarding `CC(C)N(C(N)=O)c1ccc2c(c1)OCO2`, the T/C under setting [3] is 98 % of control, the T/C under setting [4] was 107 % of control and the T/C under setting [5] is 98 % of control.

As to `COc1cc2c(CCNC(C)=O)csc2cc1Cl`, the T/C is 97 % of control (dose: 60.0 mg/kg/injection, schedule: Q01DX005 (ip), vehicle: saline with Tween-80); 99 % of control (dose: 120.0 mg/kg/injection, schedule: Q01DX005 (ip), vehicle: saline with Tween-80); 105 % of control (dose: 240.0 mg/kg/injection, schedule: Q01DX005 (ip), vehicle: saline with Tween-80).

On to `O=C1C(Cl)=C(Cl)C(Cl)(Cl)C(Cl)=C1Cl`, for which the T/C was 99 % of control (dose: 25.0 mg/kg/injection, schedule: Q01DX001 (ip), vehicle: Klucel (hydroxypropylcellulose) (HPC)); 93 % of control (dose: 50.0 mg/kg/injection, schedule: Q01DX001 (ip), vehicle: Klucel (hydroxypropylcellulose) (HPC)); 93 % of control (dose: 100.0 mg/kg/injection, schedule: Q01DX001 (ip), vehicle: Klucel (hydroxypropylcellulose) (HPC)).

On to `C=CCN1C(=O)CSC1=S`, for which the T/C is, setting by setting: under setting [13], 100 % of control; under setting [17], 108 % of control; (dose: 400.0 mg/kg/injection, schedule: Q01DX009 (ip), vehicle: Klucel (hydroxypropylcellulose) (HPC)) 110 % of control.

Turning to `COC(=O)c1nc(N)nc(C(=O)OC)c1C(=O)c1ccc(OC)cc1`, the T/C is, setting by setting: (dose: 60.0 mg/kg/injection, schedule: Q01DX005 (ip), vehicle: Klucel (hydroxypropylcellulose) (HPC)) 101 % of control; (dose: 120.0 mg/kg/injection, schedule: Q01DX005 (ip), vehicle: Klucel (hydroxypropylcellulose) (HPC)) 101 % of control.

For `CC(=O)NC(C)C(C)(C)O` (configuration not stated), the T/C is 96 % of control under setting [9]; 118 % of control under setting [10]; 105 % of control under setting [11]; 105 % of control (dose: 400.0 mg/kg/injection, schedule: Q01DX009 (ip), vehicle: saline).

Turning to `Cc1ccc(NC(=S)SCc2ccc(Cl)c(Cl)c2)cc1C`, the T/C runs as follows: under setting [12], 116 % of control; (dose: 50.0 mg/kg/injection, schedule: Q01DX009 (ip), vehicle: suspension in saline) 96 % of control; under setting [13], 113 % of control; (dose: 100.0 mg/kg/injection, schedule: Q01DX009 (ip), vehicle: suspension in saline) 100 % of control; under setting [17], 109 % of control; (dose: 200.0 mg/kg/injection, schedule: Q01DX009 (ip), vehicle: suspension in saline) 101 % of control.

Regarding `O=C(CS(=O)(=O)O)c1ccccc1`, the T/C is 100 % of control (dose: 25.0 mg/kg/injection, schedule: Q04DX002 (ip), vehicle: saline with Tween-80); 106 % of control (dose: 50.0 mg/kg/injection, schedule: Q04DX002 (ip), vehicle: saline with Tween-80); 94 % of control and 97 % of control under setting [18].

Consider `Clc1ccccc1C=Nc1ccc(N=Cc2ccccc2Cl)cc1`, for which the T/C is, setting by setting: under setting [18], 97 % of control; (dose: 200.0 mg/kg/injection, schedule: Q04DX002 (ip), vehicle: saline with Tween-80) 91 % of control; (dose: 400.0 mg/kg/injection, schedule: Q04DX002 (ip), vehicle: saline with Tween-80) 92 % of control.

Consider `O=C(O)Cc1cnc[nH]1`, for which the T/C (dose: 6.25 mg/kg/injection, schedule: Q01DX009 (ip), vehicle: saline) is 100 % of control; the T/C (dose: 12.5 mg/kg/injection, schedule: Q01DX009 (ip), vehicle: saline) was 106 % of control; the T/C under setting [14] was 97 % of control; the T/C under setting [9] was 99 % of control.

On to `COC1=CC=C2CC(=C1)CCC1C2CCC2(C)C(=O)CCC12` (configuration not stated), for which the T/C was 100 % of control under setting [6], 96 % of control under setting [7] and 91 % of control under setting [8].

For the molecule `CCCCCCCCCCCCCCCC[N+](C)(C)CCNC(C)=O`, the T/C was 100 % of control under setting [1], 102 % of control under setting [2] and 90 % of control under setting [3].

For the molecule `CC1C2C1C1C3NN=CC3C2n2c(=O)n(-c3ccccc3)c(=O)n21` (configuration not stated), the T/C was 99 % of control under setting [6], 100 % of control under setting [7] and 105 % of control under setting [8].
